PubChem BioAssay AID248 (DTP/NCI, 2004)
Where “and” joins values, the source holds several entries; their conditions need not be identical. Equal values may be shown once. Toxic doses and inconclusive results are not listed. Square brackets hold non-standard residues; d marks the D form. Peptide text beside a SMILES is read from it. Ac5c = NC1(C(=O)O)CCCC1

System: L1210 leukemia ip in BDF1 mice, survival T/C
Test: NCI In Vivo Anticancer Drug Screen. Data for tumor model L1210 Leukemia (intraperitoneal) in B6D2F1 (BDF1) mice
Conditions: endpoint: mean survival time, higher = longer survival
In short: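 Each compound was tested against a transplantable tumor grown in mice. The endpoint was survival, with treated animals benchmarked against vehicle controls as a simple ratio.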

[1] = dose: 100.0 mg/kg/injection, schedule: Q04DX003 (ip), vehicle: saline
[2] = dose: 200.0 mg/kg/injection, schedule: Q04DX003 (ip), vehicle: saline
[3] = dose: 400.0 mg/kg/injection, schedule: Q04DX003 (ip), vehicle: saline
[4] = dose: 100.0 mg/kg/injection, schedule: Q01DX009 (ip), vehicle: Klucel (hydroxypropylcellulose) (HPC)
[5] = dose: 100.0 mg/kg/injection, schedule: Q04DX003 (ip), vehicle: Klucel (hydroxypropylcellulose) (HPC)
[6] = dose: 200.0 mg/kg/injection, schedule: Q01DX009 (ip), vehicle: Klucel (hydroxypropylcellulose) (HPC)
[7] = dose: 200.0 mg/kg/injection, schedule: Q04DX003 (ip), vehicle: Klucel (hydroxypropylcellulose) (HPC)
[8] = dose: 400.0 mg/kg/injection, schedule: Q01DX009 (ip), vehicle: Klucel (hydroxypropylcellulose) (HPC)
[9] = dose: 400.0 mg/kg/injection, schedule: Q04DX003 (ip), vehicle: Klucel (hydroxypropylcellulose) (HPC)
[10] = dose: 50.0 mg/kg/injection, schedule: Q01DX009 (ip), vehicle: saline
[11] = dose: 100.0 mg/kg/injection, schedule: Q01DX009 (ip), vehicle: saline
[12] = dose: 200.0 mg/kg/injection, schedule: Q01DX009 (ip), vehicle: saline
[13] = dose: 12.5 mg/kg/injection, schedule: Q01DX009 (ip), vehicle: saline
[14] = dose: 12.5 mg/kg/injection, schedule: Q04DX003 (ip), vehicle: saline
[15] = dose: 25.0 mg/kg/injection, schedule: Q01DX009 (ip), vehicle: saline
[16] = dose: 25.0 mg/kg/injection, schedule: Q04DX003 (ip), vehicle: saline
[17] = dose: 50.0 mg/kg/injection, schedule: Q04DX003 (ip), vehicle: saline
[18] = dose: 100.0 mg/kg/injection, schedule: Q04DX003 (ip), vehicle: saline with Tween-80
[19] = dose: 200.0 mg/kg/injection, schedule: Q04DX003 (ip), vehicle: saline with Tween-80
[20] = dose: 400.0 mg/kg/injection, schedule: Q04DX003 (ip), vehicle: saline with Tween-80

`NCC(=O)NC1(C(=O)O)CCCC1` (H-Gly-[Ac5c]-OH) was tested, and the T/C (dose: 16.0 mg/kg/injection, schedule: Q01DX Z (ip), vehicle: carboxymethylcellulose (CMC)) was 104 % of control, the T/C (dose: 24.0 mg/kg/injection, schedule: Q01DX Z (ip), vehicle: carboxymethylcellulose (CMC)) was 109 % of control and the T/C (dose: 30.0 mg/kg/injection, schedule: Q01DX Z (ip), vehicle: other) was 103 % of control. For the same compound, the T/C (dose: 36.0 mg/kg/injection, schedule: Q01DX Z (ip), vehicle: carboxymethylcellulose (CMC)) was 118 % of control, the T/C (dose: 54.0 mg/kg/injection, schedule: Q01DX017 (ip), vehicle: saline) was 157 % of control and the T/C (dose: 54.0 mg/kg/injection, schedule: Q01DX Z (ip), vehicle: saline) was 121 % of control. For the same compound, the T/C (dose: 66.0 mg/kg/injection, schedule: Q01DX Z (ip), vehicle: saline) was 115 % of control, the T/C [1] was 103 % of control and the T/C (dose: 120.0 mg/kg/injection, schedule: Q01DX Z (ip), vehicle: saline) was 152 % of control. For the same compound, the T/C (dose: 150.0 mg/kg/injection, schedule: Q01DX Z (ip), vehicle: saline) was 156 % of control, the T/C (dose: 180.0 mg/kg/injection, schedule: Q01DX Z (ip), vehicle: carboxymethylcellulose (CMC)) was 105 % of control and the T/C [2] was 124 % of control. For the same compound, the T/C (dose: 225.0 mg/kg/injection, schedule: Q01DX Z (ip), vehicle: saline) was 115 % of control, the T/C (dose: 240.0 mg/kg/injection, schedule: Q01DX Z (ip), vehicle: other) was 124 % of control and the T/C [3] was 155 % of control. For the same compound, the T/C (dose: 480.0 mg/kg/injection, schedule: Q01DX Z (ip), vehicle: other) was 88 % of control.

For `Cc1cc(Cl)ccc1NC(=O)C(c1ccccc1)c1ccccc1`, the T/C [4] was 89 % of control, the T/C [5] was 101 % of control and the T/C [6] was 92 % of control. The T/C [7] was 95 % of control, the T/C [8] was 93 % of control and the T/C [9] was 88 % of control.

In the case of `CC(C)=C1C2CCC1NN2`, the T/C (dose: 50.0 mg/kg/injection, schedule: Q01DX001 (ip), vehicle: Klucel (hydroxypropylcellulose) (HPC)) is reported as 108 % of control.

With `CCCCCCCCCC(=O)Oc1nncc(=O)[nH]1` the T/C [10] was 87 % of control, the T/C [11] was 97 % of control and the T/C [12] was 104 % of control.

For `OCC1OC(n2ccc3c2ncn2nnnc32)C(O)C1O` (configuration not stated), the T/C [13] was 91 % of control, the T/C [14] was 102 % of control and the T/C [15] was 102 % of control. For the same compound, the T/C [16] was 107 % of control and the T/C [17] was 105 % of control.

In the case of `CCCCC#CC(=O)OCCC(C)C`, the T/C [18] is reported as 94 % of control, the T/C [19] is reported as 90 % of control and the T/C [20] is reported as 94 % of control.

For `CCN(CC)S(=O)(=O)c1ccc(C(=O)O)cc1`, the T/C [4] was 101 % of control, the T/C [5] was 101 % of control and the T/C [6] was 104 % of control. For the same compound, the T/C [7] was 105 % of control, the T/C [8] was 103 % of control and the T/C [9] was 92 % of control.

`CC(C)(C)C(=O)c1ccc(-c2ccccc2)cc1` was tested, and the T/C (dose: 100.0 mg/kg/injection, schedule: Q04DX002 (ip), vehicle: other) was 91 % of control, the T/C (dose: 200.0 mg/kg/injection, schedule: Q04DX002 (ip), vehicle: other) was 94 % of control and the T/C (dose: 400.0 mg/kg/injection, schedule: Q04DX002 (ip), vehicle: other) was 94 % of control.

With `COc1ccc2c3csc4ccccc4c-3nc2c1` the T/C [13] was 98 % of control, the T/C [14] was 95 % of control and the T/C (dose: 25.0 mg/kg/injection, schedule: Q01DX009 (ip), vehicle: Klucel (hydroxypropylcellulose) (HPC)) was 111 % of control. For the same compound, the T/C [15] was 98 % of control, the T/C [16] was 95 % of control and the T/C (dose: 50.0 mg/kg/injection, schedule: Q01DX009 (ip), vehicle: Klucel (hydroxypropylcellulose) (HPC)) was 100 % of control. The T/C [17] was 94 % of control.

`O=C(O)/C(=C\c1ccncc1)c1cccc2ccccc12` was tested, and the T/C [18] was 100 % of control, the T/C [6] was 105 % of control and the T/C [19] was 98 % of control. For the same compound, the T/C [8] was 102 % of control and the T/C [20] was 91 % of control.

`CC(=O)Nc1nc(C)c(CCCOc2ccc([N+](=O)[O-])cc2)c(Cl)n1` was tested, and the T/C (dose: 100.0 mg/kg/injection, schedule: Q01DX001 (ip), vehicle: Klucel (hydroxypropylcellulose) (HPC)) was 100 % of control, the T/C (dose: 200.0 mg/kg/injection, schedule: Q01DX001 (ip), vehicle: Klucel (hydroxypropylcellulose) (HPC)) was 97 % of control and the T/C (dose: 400.0 mg/kg/injection, schedule: Q01DX001 (ip), vehicle: Klucel (hydroxypropylcellulose) (HPC)) was 97 % of control.

In the case of `O=C1NC(=O)C(c2ccc(Cl)cc2)(c2ccccc2Cl)N1` (configuration not stated), the T/C [5] is reported as 95 % of control, the T/C [7] is reported as 102 % of control and the T/C [9] is reported as 98 % of control.

With `[O-][n+]1c2ccccc2nn1-c1ccccc1` the T/C (dose: 100.0 mg/kg/injection, schedule: Q01DX001 (ip), vehicle: saline) was 95 % of control, the T/C (dose: 200.0 mg/kg/injection, schedule: Q01DX001 (ip), vehicle: saline) was 96 % of control and the T/C (dose: 400.0 mg/kg/injection, schedule: Q01DX001 (ip), vehicle: saline) was 97 % of control.

In the case of `CCOC(=O)C(Cl)c1ccc(OC)cc1` (configuration not stated), the T/C (dose: 100.0 mg/kg/injection, schedule: Q01DX009 (ip), vehicle: other) is reported as 111 % of control, the T/C (dose: 200.0 mg/kg/injection, schedule: Q01DX009 (ip), vehicle: other) is reported as 98 % of control and the T/C (dose: 400.0 mg/kg/injection, schedule: Q01DX009 (ip), vehicle: other) is reported as 102 % of control.

With `c1cc2c(cc1CCc1ccc3c(c1)OCO3)OCO2` the T/C (dose: 100.0 mg/kg/injection, schedule: Q04DX002 (ip), vehicle: Klucel (hydroxypropylcellulose) (HPC)) was 96 % of control, the T/C (dose: 200.0 mg/kg/injection, schedule: Q04DX002 (ip), vehicle: Klucel (hydroxypropylcellulose) (HPC)) was 86 % of control and the T/C (dose: 400.0 mg/kg/injection, schedule: Q04DX002 (ip), vehicle: Klucel (hydroxypropylcellulose) (HPC)) was 104 % of control.

For `O=C(Nc1ncccn1)c1ccc(Cl)cc1Cl`, the T/C (dose: 50.0 mg/kg/injection, schedule: Q04DX003 (ip), vehicle: saline with Tween-80) was 93 % of control, the T/C (dose: 100.0 mg/kg/injection, schedule: Q01DX001 (ip), vehicle: saline with Tween-80) was 103 % of control and the T/C (dose: 100.0 mg/kg/injection, schedule: Q01DX009 (ip), vehicle: saline with Tween-80) was 102 % of control. For the same compound, the T/C (dose: 100.0 mg/kg/injection, schedule: Q04DX002 (ip), vehicle: saline with Tween-80) was 93 % of control and 91 % of control, the T/C [18] was 94 % of control and 100 % of control and the T/C (dose: 200.0 mg/kg/injection, schedule: Q01DX001 (ip), vehicle: saline with Tween-80) was 96 % of control. The T/C (dose: 200.0 mg/kg/injection, schedule: Q01DX009 (ip), vehicle: saline with Tween-80) was 102 % of control, the T/C (dose: 200.0 mg/kg/injection, schedule: Q04DX002 (ip), vehicle: saline with Tween-80) was 104 % of control and the T/C [19] was 91 % of control. The T/C (dose: 400.0 mg/kg/injection, schedule: Q01DX001 (ip), vehicle: saline with Tween-80) was 96 % of control, the T/C (dose: 400.0 mg/kg/injection, schedule: Q01DX009 (ip), vehicle: saline with Tween-80) was 100 % of control and the T/C (dose: 400.0 mg/kg/injection, schedule: Q04DX002 (ip), vehicle: saline with Tween-80) was 105 % of control and 107 % of control. The T/C [20] was 103 % of control and 92 % of control.

With `CCCCCCCCOC(=O)CCCc1ccc(N(CCCl)CCCl)cc1` the T/C (dose: 100.0 mg/kg/injection, schedule: Q04DX002 (ip), vehicle: saline) was 104 % of control, the T/C (dose: 200.0 mg/kg/injection, schedule: Q04DX002 (ip), vehicle: saline) was 108 % of control and the T/C (dose: 400.0 mg/kg/injection, schedule: Q04DX002 (ip), vehicle: saline) was 111 % of control.

`CCOC(=O)C1CC2(c3ccccc3)C(=O)C1(c1ccccc1)C(c1ccccc1)=C2c1ccccc1` (configuration not stated) was tested, and the T/C (dose: 50.0 mg/kg/injection, schedule: Q01DX001 (ip), vehicle: carboxymethylcellulose (CMC)) was 100 % of control, the T/C (dose: 100.0 mg/kg/injection, schedule: Q01DX001 (ip), vehicle: carboxymethylcellulose (CMC)) was 94 % of control and the T/C (dose: 200.0 mg/kg/injection, schedule: Q01DX001 (ip), vehicle: carboxymethylcellulose (CMC)) was 100 % of control. The T/C (dose: 400.0 mg/kg/injection, schedule: Q01DX001 (ip), vehicle: carboxymethylcellulose (CMC)) was 97 % of control.

`NC(=O)CCP(=O)(CCC(N)=O)CCC(N)=O` was tested, and the T/C [10] was 94 % of control, the T/C [17] was 101 % of control and the T/C [11] was 94 % of control. For the same compound, the T/C [1] was 103 % of control, the T/C [12] was 90 % of control and the T/C [2] was 95 % of control. For the same compound, the T/C [3] was 98 % of control.
